PMC12073635, “Synthesis of Tricyclic and Tetracyclic Lactone Derivatives of Thieno[2,3-b]pyrazine or Thieno[2,3-b]quinoline: Preliminary Antitumor and Antiparasitic Activity Evaluation” (Molecules, 2025)

Assays:
[1] = test system: HeLa (cervical carcinoma) cells; test: SRB cell growth inhibition assay, HeLa; assay type: cell-based; conditions: Homo sapiens, 72 h, mean ± standard deviation
Experimental: (§1) The antitumor potential of the Sonogashira coupling products 2, tricyclic lactones 3 and 5, and tetracyclic lactones 7 was evaluated using the sulforhodamine B (SRB) assay against five human tumor cell lines: colorectal adenocarcinoma (CaCo-2), breast adenocarcinoma (MCF-7), gastric adenocarcinoma (AGS), cervical carcinoma (HeLa), and non-small cell lung cancer (NCI-H460). A primary pig liver cell culture (PLP2) was used to assess the toxicity of compounds.
(§2) The human tumor cell lines used were CaCo-2 (colorectal adenocarcinoma), MCF-7 (breast adenocarcinoma), AGS (gastric adenocarcinoma), HeLa (cervical carcinoma), NCI-H460 (lung carcinoma). Non-tumor cell lines were also tested: PLP2 (primary pig liver culture). All the cell lines were maintained in RPMI-1640 medium supplemented with 10% fetal bovine serum, glutamine (2 mM), penicillin (100 U/mL), and streptomycin ([…]), with the exception of PLP2, which was maintained in DMEM medium supplemented with fetal bovine serum (10%), glutamine and antibiotics. The culture flasks were incubated at 37 °C and with 5% CO2, under a humid atmosphere. The cells were used only when they had 70 to 80% confluence. A known mass of each compound was dissolved in DMSO/H2O (1:1, 1 mL), in order to obtain the stock solutions with a concentration of 1 mM. […] Each compound concentration (10 μL) was incubated with the cell suspension (190 μL) of the cell lines tested in 96-well microplates for 72 h. The microplates were incubated at 37 °C and with 5% CO2 in a humid atmosphere after checking the adherence of the cells. All cell lines were tested at a concentration of 10,000 cells/well. After the incubation period, the cells were treated: TCA (10% w/v; 100 μL) was previously cooled, and plates were incubated for 1 h at 4 °C, washed with water, and, after drying, a SRB solution (0.057%, m/v; 100 μL) was added and left to stand at room temperature for 30 min. To remove non-adhered SRB, plates were washed three times with a solution of acetic acid (1% v/v) and placed to dry. Finally, an adhered SRB was solubilized with Tris (10 mM, 200 μL) and the absorbance at a wavelength of 540 nm was read in the Biotek ELX800 microplate reader. The results obtained by the SRB assay were expressed regarding the concentration compounds that can inhibit cell growth by 50%—GI50. Doxorubicin was used as a positive control.

[2] = test system: T. brucei Lister 427 bloodstream forms; test: Resazurin-based anti-T. brucei assay; assay type: cell-based, Trypanosoma brucei; conditions: 72 h, dose-response; for IC50: Trypanosoma brucei
Experimental: The antiparasitic activity of compounds 2c–g, 3a, 5a and 7 was evaluated at a single concentration of 20 μM, against Trypanosoma brucei (T. brucei) and Leishmania infantum (L. infantum) promastigotes. The results are shown in Table 9 together with the cytotoxicity data (CC50) in THP-1–derived macrophages cells.
T. brucei Lister 427 bloodstream forms were grown in a humidified incubator at 37 °C, 5% CO2 in complete HMI-9 medium 1 supplemented with 10% heat-inactivated Fetal Bovine Serum (FBS) and 100 UI/mL penicillin/streptomycin. Parasites maintenance was performed in T25 ventilated flasks by subpassage at a concentration of 1 × 10^4/mL every 2 days on T25 ventilated flasks.
The efficacy of compounds against T. brucei bloodstream forms was evaluated using a modified resazurin-based assay previously described in the literature. Parasites were added to 100 µL of serial dilutions of compounds in supplemented complete medium at a cell density of 5 × 10^3/mL for. As a quality control, a dose–response curve for the antitrypanosomal pentamidine was included in all the assays. The final volume of the assay is 200 µL/well. Each condition was carried out in duplicate. Following 72 h incubation at the specific conditions for T. brucei, 20 µL of a 0.5 mM resazurin solution was added and plates were incubated for a further 4 h under the same conditions. Fluorescence was measured at 544 nm and 590 nm excitation and emission wavelength, respectively, using a Synergy 2 Multi-Mode Reader (Biotek, Winooski, VT, USA). Results were shown as % of parasite growth inhibition compared to control (untreated parasites) and represent the average of at least three independent experiments. The effect was evaluated by the determination of the IC50 value (concentration required to inhibit growth in 50%) and calculated by non-linear regression curves using GraphPad Prism version 8.1.1 for Windows (GraphPad Software, San Diego CA, USA).

[3] = test system: CaCo-2 (colorectal adenocarcinoma) cells; test: SRB cell growth inhibition assay, CaCo-2; assay type: cell-based, human; conditions: mean ± standard deviation
Experimental: as §1, §2

[4] = test system: AGS (gastric adenocarcinoma) cells; test: SRB cell growth inhibition assay, AGS; assay type: cell-based; conditions: Homo sapiens, 72 h, mean ± standard deviation
Experimental: as §1, §2

[5] = test system: MCF-7 (breast adenocarcinoma) cells; test: SRB cell growth inhibition assay, MCF-7; assay type: cell-based, human; conditions: mean ± standard deviation
Experimental: as §1, §2

[6] = test system: NCI-H460 (non-small cell lung cancer) cells; test: SRB cell growth inhibition assay, NCI-H460; assay type: cell-based; conditions: Homo sapiens, 72 h, mean ± standard deviation
Experimental: as §1, §2

[7] = test system: THP-1-derived macrophages; test: MTT cytotoxicity in THP-1-derived macrophages; assay type: cell-based, human
Experimental: Human leukemia cell line, THP-1 (ATCC® TIB-202™, Manassas, VA, USA) was cultured in RPMI-1640 medium supplemented with 10% heat-inactivated Fetal Bovine Serum (FBS), 2 mM L-glutamine, 100 UI/mL penicillin/streptomycin, 20 mM HEPES. The cell line was maintained in a humidified incubator at 37 °C and 5% CO2 by subculture every three days in 20 mL of media at a concentration of 1 × 10^5/mL in a T75 flask. All cell culture reagents were purchased from Lonza-Bioscience (Morrisville, NC, USA).
The cytotoxicity effect of compounds on THP-1-derived macrophages was assessed by the colorimetric MTT assay (3-(4,5-dimethylthiazol-2-yl)-2,5-diphenyl tetrazolium bromide). Briefly, THP-1 cells were suspended in RPMI complete medium at a density of 1 × 10^6 cells/mL and 100 μL/well were seeded in a 96-well plate and were differentiated into macrophages by addition of 40 ng/mL of phorbol-myristate 13-acetate (PMA, Sigma, Saint Louis, MI, USA) for 24 h followed by replacement with fresh medium for more 24 h. Subsequently, cells were incubated with 100 μL of compounds ranging from 100 to 12.5 μM after dilution in the RPMI complete medium. Each condition was carried out in quadruplicate. After 72 h of incubation at 37 °C 5% CO2, the medium was removed and 200 μL of 0.5 mg/mL MTT solution diluted in RPMI was added. Plates were incubated for an additional 4 h. Then 160 μL of media was removed and the same volume of 2-propanol was added. Absorbance was read at 570 nm using a Synergy 2 Multi-Mode Reader (Biotek, Winooski, VT, USA). Cytotoxicity was evaluated by the determination of the CC50 value (drug concentration that reduced the percentage of viable cells in 50%) and calculated by non-linear regression analysis using GraphPad Prism version 8.1.1 for Windows (GraphPad Software, San Diego, CA, USA). The results represent the average of at least three independent experiments. For each compound, the Selectivity Index (SI) was calculated as the ratio between cytotoxicity in THP-1 (CC50, 72 h) and activity against parasites (IC50, 72 h).

Row | Compound | GI50 [1] [µM] | T. brucei IC50 [2] | IC50 [2] [µM] | GI50 ([3]; 72 h) [µM] | GI50 ([3]; Homo sapiens, Caco-2, 72 h) [µM] | GI50 [4] [µM] | GI50 ([5]; 72 h) [µM] | GI50 ([5]; Homo sapiens, MCF7, 72 h) [µM] | GI50 [6] [µM] | cytotoxicity in THP-1-derived macrophages (in words) [7]
1 | COC(=O)c1sc2nccnc2c1C#Cc1ccccn1 [Compound 2f, Methyl 7-(pyridin-2-ylethynyl)thieno[2,3-b]pyrazine-6-carboxylate] | 5.44 ± 4.31 | low μM range | 6.43 | 3.72 ± 2.42 | < 5 | 9.25 ± 0.61 | 4.08 ± 0.27 | < 5 | 9.33 ± 4.21 | some level of toxicity
2 | O=c1oc(-c2ccccn2)cc2c1sc1nccnc12 [Compound 3f, 8-(Pyridin-2-yl)-6H-pyrano[4′,3′:4,5]thieno[2,3-b]pyrazin-6-one] | 58.8 ± 2.44 | – | < 11 | – | 58.8 ± 2.44 | 42.6 ± 3.96 | – | 59.3 ± 2.45 | 61.2 ± 4.17 | some degree of cytotoxicity
